These results are taken from patent EP0051177A2, “Pharmaceutical preparations containing substituted ether compounds, their use, substituted ether compounds and process for their preparation” (CIBA-GEIGY AG, priority 1980, dated 1982).

Like-named read-outs stand apart in the source and are kept apart here.

Test [1] deals with Krümmungssyndrom an der Ratte. As to the kind of experiment: Analgesic effect: acetic acid-induced writhing syndrome in the rat. The format is in vivo. The following applies: peroral, 1 h before i.p. 3 % acetic acid, dose (by interpolation) reducing number of writhings by 50 %, counted for 20 min. On the procedure: Diese Wirkung wird durch Auswertung des Krümmungssyndroms an der Ratte bestimmt. Das Krümmungssyndrom wird z.B..in weiblichen Ratten von 120-140 g (5 Tiere pro Gruppe) durch eine intraperitoneale Injektion von 0,2 ml einer 3 %igen Essigsäurelösung eine Stunde nach der oralen Verabreichung der geprüften Substanz, hervorgerufen. Die Krümmungs-Bewegungen der Versuchstiere werden während 20 Minuten gezählt.
Die analgetische (antinociceptive) Wirksamkeit einer Verbindung wird durch die Bestimmung der Dosis (durch Interpolieren), welche bei Kontrolltieren (die lediglich den Trägerstoff der Wirksubstanz erhalten haben) die Anzahl der Krümmungen um 50% vermindert, beurteilt. ( ED50).
Literatur: Ziel et al., Pain Res. and Therapy, Vol. 1, ed. Bonica and Albe, Raven Press N.Y., 1976, p. 517.

In test [2] the test system is LDL-Cholesterin. As to the kind of experiment: Effect on serum lipids and lipoproteins (LDL cholesterol) in male rats after oral treatment. The format is in vivo, Ratten. The note with it: 50 mg/kg peroral, once daily for 3 days, twice on day 4, serum 16 h after last dose. An excerpt: Die in den Präparaten der Erfindung verwendeten Verbindungen zeigen wertvolle pharmakologische Eigenschaften, z.B. hypolipidämische Wirkungen mit günstiger Beeinflussung des Lipoproteinspektrums, ferner, insbesondere Verbindungen der Formel I, worin R3 für einen heterocyelischen Rest aromatischen Charakters, in erster Linie Pyridyl steht, analgetische Effekte. Diese pharmakologischen Eigenschaften können in Tierversuchen, vorzugsweise an Säugetieren, z.B. Ratten nachgewiesen werden. Hierbei können die Verbindungen enteral oder parenteral, vorzugsweise oral, subkutan oder intraperitoneal in einem Dosisbereich von 1 bis 100 mg/kg/Tag verabreicht werden. Beispielsweise wird die Senkung von "low und very low-density"-Lipoproteinen (LDL und VLDL), sowie die Senkung von Cholesterin und Triglyceriden im Serum wie folgt bestimmt: Männlichen Ratten verabreicht man an 3 Tagen einmal täglich 50 mg Wirkstoff peroral. Am 4. Tag werden die Tiere 2-mal behandelt. Am 5. Tag wird Serum gewonnen und die Lipoproteine werden mit einer Ultrazentrifuge aufgetrennt. Im Serum und in den isolierten Lipoproteinfraktionen werden das Cholesterin und die Triglyceride bestimmt. [K.R. Müller und R.G. Cortesi, Artery 4 (6): 564-577 (1978)].
Männliche Ratten von 180-200 g Körpergewicht erhalten an 3 Tagen einmal täglich peroral die Prüfsubstanz gelöst in Polyäthylenglykol 400. Am 4. Tag werden die Tiere zweimal, morgens und abends, behandelt. Nach der letzten Behandlung wird den Tieren das Futter entzogen. Sechzehn Stunden später werden die Ratten getötet. Aus dem Blut wird Serum gewonnen.
Gleiche Mengen Serum von je 2 Ratten aus derselben Gruppe werden vereinigt, und 0.05 EDTA (Aethylendiamintetraessigsäure) und 0,01 % Thimerosal werden zugesetzt. Die Serumlipoproteine werden durch Ultrazentrifugieren in einem Beckman 40.3 Rotor isoliert. Die VLDL (very low density lipoproteins) werden durch 24-stündiges
Zentrifugieren bei 78 000 g und der Dichte 1.006 gewonnen, die LDL (low density lipoproteins) durch 24-stündiges Zentrifugieren bei 78 000 g und der Dichte 1,040, und die HDL (high density lipoproteins) durch 24-stündiges Zentrifugieren bei 109 000 g und der Dichte 1.21.
In jeder Serumprobe und in jeder Lipoproteinfraktion werden Cholesterin und Triglyceride mit enzymatischen Methoden bestimmt. LDL-Cholesterin wurde als wichtigster Parameter für die Beurteilung der Lipidsenkung betrachtet.
Literatur: K.R. Müller und R.G. Cortesi, Artery 4(6):564-577 (1978).
Die Zahlen der folgenden Resultate geben die Aenderungen vom LDL-Cholesterin in % der Kontrolle an. Dosierung: 50 mg/kg peroral.

The mark [3] stands for this setting: Rattus norvegicus, po, read-out: ED50.

Turning to `CCCOC1Oc2ccccc2-c2nc(-c3ccncc3)ncc21` (stereo not shown) [2-(4-Pyridyl)-5-propyloxy-5H-[1]benzopyrano[4,3-d]pyrimidin], the 50% effective dose (ED50) (as a rule, the dose that gives a 50% effect, or the effect in half of the subjects) in test [1] (setting [3]) was 15 mg/kg.
Take `CCOC1Oc2ccccc2-c2nc(-c3ccc(O)cc3)ncc21` (stereo not shown) [2-(4-Hydroxy-phenyl)-5-äthyloxy-5H-[1]benzopyrano[4,3-d]pyrimidin]: the “Aenderungen vom LDL-Cholesterin in % der Kontrolle” value in test [2] was -69%.
In the case of “6-Methyl-2-(3-pyridyl)-5-butyloxy-5H-[1]benzopyrano[4,3-d]pyrimidin”, in test [1], the ED50 was determined as 60 mg/kg.
Turning to `CCCOC1Oc2ccccc2-c2nc(-c3cccc(OC)c3)ncc21` (stereo not shown) [2-(3-Methoxy-phenyl)-5-propyloxy-5H-[1]benzopyrano[4,3-d]pyrimidin], in test [2], the “Aenderungen vom LDL-Cholesterin in % der Kontrolle” value is given as -43%.
For `CCOC1Oc2ccccc2-c2nc(-c3ccccn3)ncc21` (stereo not shown) [1-(2-Pyridyl)-5-äthoxy-5H-[1]benzopyrano[4,3-d]pyrimidin], the 50% effective dose (ED50) in test [1] (setting [3]) is 15 mg/kg.
For `CCCOC1Oc2ccccc2-c2nc(-c3ccc(OC)cc3)ncc21` (stereo not shown) [2-(4-Methoxy-phenyl)-5-propyloxy-5H-[1]benzopyrano[4,3-d]pyrimidin], the “Aenderungen vom LDL-Cholesterin in % der Kontrolle” value in test [2] is -38%.
Turning to `CCOC1Oc2ccccc2-c2nc(-c3ccccc3)ncc21` (stereo not shown) [2-Phenyl-5-äthoxy-5H-[1]benzopyrano[4,3-d]pyrimidin], the “Aenderungen vom LDL-Cholesterin in % der Kontrolle” value in test [2] is -61%.
`CCCCOC1Oc2ccccc2-c2nc(-c3cccnc3)ncc21` (stereo not shown) [2-(3-Pyridyl)-5-butyloxy-5H-[1]benzopyrano[4,3-d]pyrimidin]: the ED50 in test [1] (setting [3]) is 5 mg/kg.
For the molecule `CCCCOC1Oc2ccccc2-c2nc(-c3cccc(C)c3)ncc21` (stereo not shown) [2-(5-Methyl-phenyl)-5-butyloxy-5H-[1]benzopyrano[4,3-d]pyrimidin], the “Aenderungen vom LDL-Cholesterin in % der Kontrolle” value in test [2] is on record as -29%.
For `CCOC1Oc2ccccc2-c2nc(-c3cccnc3)ncc21` (stereo not shown) [2-(3-Pyridyl)-5-äthoxy-5H-[1]benzopyrano[4,3-d]pyrimidin], the ED50 in test [1] (setting [3]) was found to be 1.5 mg/kg.
